The text below walks through data of a melting point compilation (Tetko et al.; mined from patent text by program, amines drawn as free bases though some values may be those of a salt).

What is called melting point is the temperature of the solid-liquid transition.

Each structure is given as a SMILES string.

Turning to `CC(=C1SC(=O)NC1=O)c1ccc(OCCCOc2c(-c3ccc(F)cc3)n(C)c3ccccc3c2=O)c(Cl)c1`, the melting point lay in the range of 232 to 234 °C.

As to `Nc1ccc2oc(CCC(F)(F)F)cc2c1`, the melting point amounted to 74 °C.

In the case of `CC(=O)OC1CSC(Oc2ccc(F)nc2)C(OC(C)=O)C1OC(C)=O` (centres undefined), the melting point came out at 123 °C.

Compound `CCC(=O)N(O)C(C)c1ccco1` (centres undefined) came in with a melting point of 74 to 76 °C.

Regarding `CC(=O)NC(NC(=O)Nc1ccccc1)C(=O)NCc1ccccc1` (centres undefined), the melting point was 242 °C.

Take `CNC(=S)NS(=O)(=O)c1cc(CCNC(=O)/C=C/c2cccs2)ccc1-c1ccco1`: the melting point was 175 to 176 °C.

Compound `CC1Cc2cc(Cl)c(Cl)cc2C(c2ccc([N+](=O)[O-])cc2)O1` (centres undefined) yielded a melting point of 189 to 191 °C.

As for `O=C(O)C1=Cc2cc(S(=O)(=O)NCc3ccccc3)cc(Cl)c2OC1C(F)(F)F` (centres undefined), the melting point was 167 to 174 °C.

For the compound `Fc1ccc(CCN2CCC(n3ccc4ccc(Br)cc43)CC2)cc1`, the melting point lay within 99 to 101 °C.

In turn, `NS(=O)(=O)c1cccnc1N1CCSCC1` yielded a melting point of 176 to 177 °C.

On to `COc1cc(OC)nc(NC(=O)CC(F)=C(F)F)n1`, for which the melting point lay in the range of 127 to 130 °C.

On to `COc1ccc(S(=O)(=O)C2(CCCC#Cc3ccc(Cl)cc3)CC(=O)NC2=O)cc1` (centres undefined), for which the melting point fell in the range of 160 to 162 °C.

As for `Cn1cc(CO)c2c3c(c(-c4ccccc4Cl)cc21)C(=O)NC3=O`, the melting point lay within 270 to 274 °C.

`COc1cc(F)c(C)cc1[N+](=O)[O-]` gave a melting point of 71 to 74 °C.

Take `COc1cc(-n2cccn2)ccc1-n1cc(OC)c(=O)c(-c2ccnn2-c2cccc(Cl)c2)n1`: the melting point fell in the range of 167 to 168 °C.

Turning to `Cc1c(-c2ccccc2)c(N2CCC(N(C)C)C2)c2oc(C(C)(C)CO)nc2c1C#N` (centres undefined), the melting point was 175 to 178 °C.

Turning to `COC(=O)C1=Cc2ccc(O)cc21`, the melting point lay within 108 to 109 °C.

The compound `O=c1[nH]c(=S)[nH]cc1-c1ccccc1` registered a melting point of 269 to 271 °C.

`CCn1cc(C(=O)NCc2ccc(Cl)cc2)c(=O)c2cc(Br)sc21` had a melting point of 196 to 197 °C.

On to `CN1C(=O)CC(c2ccccc2)C1C(O)c1ccc(Br)s1` (centres undefined), for which the melting point worked out at 105 °C.

In the case of `CSc1ncc(C(O)c2ccc(C)nc2)c(O)n1` (centres undefined), the melting point is 140 °C.

`Cc1nc2cnccc2n1-c1ccc(CC(=O)O)cc1` displayed a melting point of 226 to 230 °C.

For `CCc1c(CC#N)ccc(OCc2ccccc2)c1OCc1ccccc1`, the melting point was 44 to 47.5 °C.

`COc1cccc2c(Nc3ccccc3C)nc(N)nc12`: the melting point fell in the range of 218 to 220 °C.

As for `CCOc1ccc(C(=O)CCC(=O)OC)cc1OCC`, the melting point is 84 to 85 °C.

`CCNC(=NS(=O)(=O)c1ccc(N)cc1)N1CC2(C=N1)CCCC2` had a melting point of 141 to 142 °C.

`Cc1ccc(NC(=O)c2ccc(CN3CCC[C@H](N(C)C)C3)c(C(F)(F)F)c2)cc1Nc1nccc(-c2cncnc2)n1` yielded a melting point of 160 to 162 °C.

As to `COc1cccc(Oc2c(NS(=O)(=O)c3ccc(C(C)(C)C)cc3)ncnc2OCCOc2cccnn2)c1`, the melting point came out at 170 °C.

`CS(=O)(=O)OCCCCc1ccc(OCc2coc(/C=C/c3ccccc3)n2)cc1` had a melting point of 82 to 83 °C.

With `CCN(CC)C(=O)c1cc([N+](=O)[O-])cnc1CBr`, the melting point fell in the range of 62 to 64 °C.

As for `Cc1nc(N2CCN(CC3CCC3)C2=O)sc1C(=O)NCc1cccnc1`, the melting point is 136 to 137 °C.

As to `CCOC(=O)[C@H](Cc1cccc(OCc2ccc3ccccc3c2)c1)NC(=O)C(F)(F)F`, the melting point lay in the range of 103 to 111 °C.

Compound `COc1ccc(N2CCOCC2)c2sc(C(=O)NCc3ccccc3)nc12` gave a melting point of 156 to 158 °C.

In turn, `O=C(O)c1ccc(Cl)c(Sc2ccccc2[N+](=O)[O-])c1` yielded a melting point of 261 to 262 °C.

`Cc1nn(C)c(-c2ccccc2)c1N`: the melting point fell in the range of 138 to 139 °C.

In the case of `NC(=O)c1ccc(Cl)c2c1CC([N+](=O)[O-])CO2` (centres undefined), the melting point was in the range of 193 to 194 °C.

`CC1(C)Oc2c(N)cccc2C1=O` returned a melting point of 80 to 84 °C.

Compound `C#CCCCC(=O)c1cc(C)c(O)c(C(C)(C)C)c1` showed a melting point of 63 to 64 °C.

Regarding `O=C(O)c1ccccc1C(=O)N1Cc2cccn2Cc2ccccc21`, the melting point lay in the range of 210 to 214 °C.

`CCC1(CC)CCSc2c(CC#Cc3ccc(C=O)cc3)cccc21`: the melting point was in the range of 55 to 63 °C.

Compound `O=C(c1ccc(-n2cccn2)nc1Cl)N1Cc2cccn2Cc2ccccc21` returned a melting point of 133 to 135 °C.

In turn, `CCOC(=O)N1CCc2onc(Cl)c2C1` registered a melting point of 40 to 42 °C.

`CCOC(=O)Nc1cc(Oc2ccc3ccccc3c2)c(C#N)cc1F`: the melting point was determined as 132 °C.

On to `CCCc1c(OCCCOc2cc(OCC(=O)O)ccc2C(C)=O)ccc(C(C)=O)c1O`, for which the melting point was 151 to 155 °C.

On to `CCOc1ccccc1NC=C1C(=O)N(c2ccc(S(=O)(=O)N(CC)CC)cc2)N=C1C`, for which the melting point was 170 °C.

`COc1ccc(C=Cc2c(Cl)cncc2Cl)c2c1CC1(CCCC1)O2` displayed a melting point of 99 to 101 °C.

Turning to `CCCOc1c(OCc2ccccc2)cc(C2CCC(c3cc(OC)c(OC)c(OC)c3)O2)cc1S(=O)(=O)CC(C)O` (centres undefined), the melting point was 103 to 110 °C.

`CN1CCC2(CC1)Oc1ccccc1Cn1cccc12` yielded a melting point of 100 to 101 °C.

On to `COC(=O)CCSc1ncccc1C#N`, for which the melting point was 101 to 102 °C.

Turning to `O=C(Nc1cccnc1)N1CCc2cc(-c3ccccc3)ccc21`, the melting point fell in the range of 241 to 242 °C.

`Cc1cc2ncc(Nc3cccc(Cl)c3)nc2cc1C` registered a melting point of 175 °C.

`CC(C)(C)Cc1ccc2c(c1)C(=O)c1ccccc1C2=O` showed a melting point of 93.8 °C.

`CCCCO[PH](=O)Cc1cc(C(C)(C)C)c(O)c(C(C)(C)C)c1` (centres undefined): the melting point lay within 85 to 87 °C.

`COCc1cccc(CCC(O)c2ccccc2)c1NC(=O)CC1c2ccccc2Oc2ccccc21` (centres undefined) had a melting point of 144 to 146 °C.

Compound `O=C(O)COc1cc(Cl)c2c(c1)OCC(c1ccccc1)C2=O` (centres undefined) showed a melting point of 171 to 173 °C.

In turn, `CN1C(C)(C)CC(C(O)CNc2nc(Cl)nc(NCC(O)C3CC(C)(C)N(C)C(C)(C)C3)n2)CC1(C)C` (centres undefined) displayed a melting point of 166 to 176 °C.

`NS(=O)(=O)c1ccc(S(=O)(=O)N2CCc3cccc(-c4ccncc4)c32)cc1` gave a melting point of 242 to 243 °C.

The compound `COc1ccc(CS(=O)(=O)c2cc3cc(Br)ccc3oc2=O)cc1` displayed a melting point of 231 to 232 °C.

Compound `CC(=O)OCCCc1c2ccccc2cc2ccccc12` yielded a melting point of 107 to 109 °C.

The compound `Cc1c(C(N)=O)oc2nn(C)c(C)c12` gave a melting point of 148 to 150 °C.

For `OCC1OC(n2cnc3c(NNC4COc5ccccc5C4)ncnc32)C(O)C1O` (centres undefined), the melting point lay in the range of 109 to 112 °C.

As for `CCC1CC(=O)N(CCc2ccc(NC(=O)c3cccs3)cc2)N=C1c1ccc(OC)c(OC)c1` (centres undefined), the melting point worked out at 186 °C.

Turning to `CC1(C)CCC(N2c3ccccc3Oc3ccccc32)=N1`, the melting point lay in the range of 148 to 150 °C.

`CNC(=O)c1sc(NC(C)=O)nc1CCc1ccc(NC(NC(=O)OC(C)(C)C)NC(=O)OC(C)(C)C)cc1` had a melting point of 245 to 246 °C.

For `I/C(=C/C=C(/I)SCc1ccccc1)SCc1ccccc1`, the melting point lay within 111 to 112 °C.

The compound `CC(C)(CCOc1ccc(Cl)cc1Cl)C(=O)Cn1cncn1` displayed a melting point of 62 °C.

In the case of `O=C(Nc1ccc(-n2nc(C(F)(F)F)cc2C(F)(F)F)cc1)c1ccc(CO)cc1`, the melting point was 213 to 214 °C.

`Cc1cc(O)cc(C)c1NC=O` showed a melting point of 239 °C.

`COc1cc(OC)nc(NC(=O)NS(=O)(=O)c2ccccc2CN2CN=CN2)n1` showed a melting point of 219 to 220 °C.

For `Cc1ccc2ccn(CC(C)O)c2c1` (racemic), the melting point was in the range of 65 to 69 °C.

As to `CCCCCCCCCCCCc1nnn(C(C)(C)C(=O)O)n1`, the melting point was 68 to 71 °C.

For the compound `O=C(NC(Cc1ccc(OCc2ccc(F)cc2)cc1)C(=O)O)c1cc2ccc(-c3ccc(Cl)cc3)cc2o1` (centres undefined), the melting point was in the range of 166 to 168 °C.

With `CCOC(=O)c1cn(C2CC2)c2c(F)c(/C=C\c3cc(Cc4cnc(N)nc4N)cc(OC)c3OC)c(F)cc2c1=O`, the melting point was more than 220 °C.

`C#CCNC(=NCCSCc1nccs1)NC#N` displayed a melting point of 138 to 140 °C.

The compound `Cc1c(Cl)cccc1S(=O)(=O)Nc1ccc2oncc2c1` had a melting point of 112 °C.

Regarding `Cc1cccc(N(C)C(=O)COc2cc(C(F)(F)F)no2)c1`, the melting point was 54 to 55.5 °C.

`CCCCOc1ccc(C(C)N(O)C(N)=O)cc1` (centres undefined) gave a melting point of 137 to 138 °C.

`Oc1ccc(Cn2ccnc2)c2cccnc12` showed a melting point of 182 °C.

Consider `Nc1c(-c2ccc(-c3ccc(F)cc3)cc2)nc2ccc(Cl)cc2c1C(=O)O`, for which the melting point lay in the range of 255 to 257 °C.

Compound `CCCCCCCCCCCCCCCCC[C@@H](C[C@@H]1OC(=O)[C@H]1CC)OC(=O)[C@H](CC(C)C)NC=O` yielded a melting point of 60 to 61 °C.

`Cc1cc(N)nc(CCc2nc3cc(-c4ccccc4)cnc3[nH]2)c1`: the melting point came out at 230 °C.

`Oc1ccc2nc(-c3ccc(Cl)cc3)oc2c1` showed a melting point of 273 to 274 °C.

For `O=C1Nc2ccc(F)c(F)c2C(=O)N2CCC[C@@H]12`, the melting point is more than 250 °C.

The compound `CCc1cc2c(Cl)cc(F)c(-n3c(=O)cc(C(F)(F)F)n(N)c3=O)c2o1` showed a melting point of 145 to 147 °C.

`CCC(=O)c1cccc2nc3n(c12)CCCN3c1ccc(Cl)cc1Cl` returned a melting point of 195 to 196 °C.

Take `O=C(O)COc1c(Br)cc(C(=O)c2c(Cc3ccccc3)sc3ccccc23)cc1Br`: the melting point was 162 to 163 °C.

Take `Cc1ccsc1-n1ncc(-c2ccc(S(C)(=O)=O)cc2)c(-c2ccc(F)cc2)c1=O`: the melting point lay in the range of 215 to 217 °C.

`Cc1ccn(-c2nc(C)c(C(=O)NCc3ccccc3)s2)c(=O)c1` came in with a melting point of 145 to 147 °C.

Consider `O=C(Nc1ccc(N2CCN(Cc3ccc[nH]3)CC2)cc1)c1ccccc1-c1ccc(C(F)(F)F)cc1`, for which the melting point is 191 to 193 °C.
